Patent US20230057033A1, “FLUOROGENIC BETA-LACTAMASE SUBSTRATE AND ASSOCIATED DETECTION METHOD” (MOLSID, priority 2019, published 2023)

Test system: β-lactamase
Assay: Detection of fluorescence of compound 15 with β-lactamase (microwell plate, plate fluorimeter)
Assay type: biochemical
Settings: 75 μ, 37° C., 10 U.mL^−1, fluorescence measured over time, FIG. 1
Procedure: The fluorescence of compound 15 was evaluated with and without a β-lactamase. The test was performed by incubation/chemical reaction in a microwell plate (75 μ, 37° C., 10 U.mL^−1). The fluorescence was measured over time by a plate fluorimeter.

Structure (SMILES): O=C(Cc1cccs1)N[C@@H]1C(=O)N2C(C(=O)O)=C(COC(=O)NCC3CCCCN3C(=O)Oc3ccc(Cl)cc3-c3nc4ccc(Cl)cc4c(=O)[nH]3)CS[C@H]12 (stereo partly shown) [Compound 15]
- fluorescence generated in the presence of β-lactamase (hydrolysis, fragmentation and release of ELF 97): intense fluorescence
